Experimental data reported in patent US20060211698A1, “Bicyclic heteroaryl derivatives for treating viruses” (Genelabs, Inc., priority 2005, published 2006).

Target: T1, HCV-NS5b (Hepatitis C virus genotype 1b, UniProt Q9WMX2)
T1 construct: The cloned fragment was missing the C terminus 21 amino acid residues; (His)6 (C); made in house; host or cells: XL-1 cells (E. coli)
Test: HCV-NS5b Enzyme Assay
Format: biochemical
Conditions: 1 μM test compound; incorporation of [3H]-UTP, 37° C., 2 hours
Source text: The coding sequence of NS5b protein was cloned by PCR from pFKI389luc/NS3-3′/ET as described by Lohmann, V., et al. (1999) Science 285, 110-113 using the following primers: • […] (SEQ. ID. NO. 1) • […] (SEQ. ID. NO. 2)
The cloned fragment was missing the C terminus 21 amino acid residues. The cloned fragment is inserted into an IPTG-inducible expression plasmid that provides an epitope tag (His)6 at the carboxy terminus of the protein.
The recombinant enzyme was expressed in XL-1 cells and after induction of expression, the protein was purified using affinity chromatography on a nickel-NTA column. Storage condition is 10 mM Tris-HCl pH 7.5, 50 mM NaCl, 0.1 mM EDTA, 1 mM DTT, 20% glycerol at −20° C.
The polymerase activity was assayed by measuring incorporation of radiolabeled UTP into a RNA product using a biotinylated, heteropolymeric template, which includes a portion of the HCV genome. Typically, the assay mixture […] contains 10 mM Tris-HCl (pH 7.5), 5 mM MgCl2, 0.2 mM EDTA, 10 mM KCl, 1 unit/μL RNAsin. 1 mM DTT, 10 μM each of NTP, including [^3H]-UTP, and 10 ng/μL biotinylated heteropolymeric template. 20× test compound in 2 μl's was then added as a 100% DMSO solution to achieve a final DMSO concentration of 5%. For IC50 determination a 10-point dose response was used. The compounds were serial diluted 2-fold […]. Typically for IC50's, compounds were tested starting at 50 uM or 2 μm depending on the potency. Reactions were started with addition of 10×NS5B in 4 μl's and allowed to incubate at 37° C. for 2 hours. Reactions were quenched with 8 μL of 100 mM EDTA and reaction mixtures (30 μL) were transferred to streptavidin-coated scintillation proximity microtiter plates (FlashPlates) and incubated at 4° C. overnight. Incorporation of radioactivity was determined by scintillation counting (cpm). The % Inhibition at a particular concentration was determined using the following equation, % Inhibition=100−[100*(cpm with inhibitor−bg)/(cpm with no inhibitor−bg)] where bg was the background with no enzyme.

| inhibition at 1 µM | % inhibition @ 1 μM | Structure (SMILES) |
| --- | --- | --- |
| 96.2% | – | COc1ccc(-c2ccc(Cl)cc2)c(-c2ccc3cc(-c4[nH]c5cc(C(=O)O)ccc5c4C4CCCCC4)ccc3n2)c1 [Compound 200, 2-[2-(4′-chloro-4-methoxy-biphenyl-2-yl)-quinolin-6-yl]-3-cyclohexyl-1H-indole-6-carboxylic acid] |
| 77.7% | – | COC(=O)c1ccc2c(C3CCCCC3)c(-c3ccc4nc(-c5cc(OC)ccc5-c5ccc(Cl)cc5)ccc4c3)n(CC(=O)O)c2c1 [Compound 201, 1-carboxymethyl-2-[2-(4′-chloro-4-methoxy-biphenyl-2-yl)-quinolin-6-yl]-3-cyclohexyl-1H-indole-6-carboxylic acid methyl ester] |
| 98.3% | – | COc1ccc(-c2ccc(Cl)cc2)c(-c2ccc3cc(-c4c(C5CCCCC5)c5ccc(C(=O)O)cc5n4CC(=O)O)ccc3n2)c1 [Compound 202, 1-carboxymethyl-2-[2-(4′-chloro-4-methoxy-biphenyl-2-yl)-quinolin-6-yl]-3-cyclohexyl-1H-indole-6-carboxylic acid] |
| 98.7% | – | COc1ccc(-c2ccc(Cl)cc2)c(-c2ccc3cc(-c4c(C5CCCCC5)c5ccc(C(=O)O)cc5n4CC(=O)N4CCOCC4)ccc3n2)c1 [Compound 203, 1-[N-morpholinocarbonylmethyl]-2-[2-(4′-chloro-4-methoxy-biphen-2-yl)-quinolin-6-yl]-3-cyclohexyl-1H-indole-6-carboxylic acid] |
| 95.9% | – | COc1ccc(-c2ccc(Cl)cc2)c(-c2ccc3cc(-c4c(C5CCCCC5)c5ccc(C(=O)O)cc5n4CC(=O)N4CCNCC4)ccc3n2)c1 [Compound 204, 1-[N-piperazinylcarbonylmethyl]-2-[2-(4′-chloro-4-methoxy-biphen-2-yl)-quinolin-6-yl]-3-cyclohexyl-1H-indole-6-carboxylic acid] |
| 97% | – | COc1ccc(-c2ccc(Cl)cc2)c(-c2ccc3cc(-c4c(C5CCCCC5)c5ccc(C(=O)O)cc5n4CC(=O)N4CCC(N5CCCC5)CC4)ccc3n2)c1 [Compound 205, 1-[(4-pyrrolidin-1-yl-piperidin-1-yl)carbonylmethyl]-2-[2-(4′-chloro-4-methoxy-biphen-2-yl)-quinolin-6-yl]-3-cyclohexyl-1H-indole-6-carboxylic acid] |
| 99% | – | COc1ccc(-c2ccc(Cl)cc2)c(-c2ccc3cc(-c4c(C5CCCCC5)c5ccc(C(=O)O)cc5n4CC(=O)N(C)C)ccc3n2)c1 [Compound 206, 1-[N,N-dimethylaminocarbonyl-methyl]-2-[2-(4′-chloro-4-methoxy-biphen-2-yl)-quinolin-6-yl]-3-cyclohexyl-1H-indole-6carboxylic acid] |
| 95.7% | – | NC(=O)c1cc(-c2ccc3cc(-c4c(C5CCCCC5)c5ccc(C(=O)O)cc5n4CC(=O)N4CCOCC4)ccc3n2)ccc1O [Compound 207, 1-[N-morpholinocarbonylmethyl]-2-[2-(3-amido-4-hydroxy-phenyl)-quinolin-6-yl]-3-cyclohexyl-1H-indole-6-carboxylic acid] |
| 84.5% | – | NC(=O)c1cc(-c2ccc3cc(-c4c(C5CCCCC5)c5ccc(C(=O)O)cc5n4CC(=O)O)ccc3n2)ccc1O [Compound 208, 1-carboxylmethyl-2-[2-(3-Carbamoyl-4-hydroxy-phenyl)-quinolin-6-yl]-3-cyclohexyl-1H-indole-6-carboxylic acid] |
| – | 98.5% | O=C(O)c1ccc2c(C3CCCCC3)c(-c3ccc4nc(-c5ccc(-n6ccnc6)cc5)ccc4c3)n(CC(=O)N3CCOCC3)c2c1 [Compound 209, 1-[N-morpholinocarbonylmethyl]-2-[2-(4-(1H-imidazolyl)phenyl)-quinolin-6-yl]-3-cyclohexyl-1H-indole-6-carboxylic acid] |
| 97.3% | – | Cc1nc(C)c(-c2ccc3cc(-c4c(C5CCCCC5)c5ccc(C(=O)O)cc5n4CC(=O)N4CCOCC4)ccc3n2)s1 [Compound 210, 1-[N-morpholinocarbonylmethyl]-2-[2-(2,4-dimethylthiazol-5-yl)-quinolin-6-yl]-3-cyclohexyl-1H-indole-6-carboxylic acid] |
| 91% | – | Cc1nc(C)c(-c2ccc3cc(-c4c(C5CCCCC5)c5ccc(C(=O)O)cc5n4CC(=O)O)ccc3n2)s1 [Compound 211, 1-[carboxymethyl]-2-[2-(2,4-dimethylthiazol-5-yl)-quinolin-6-yl]-3-cyclohexyl-1H-indole-6-carboxylic acid] |
| 96.8% | – | Cc1nc(C)c(-c2ccc3cc(-c4c(C5CCCCC5)c5ccc(C(=O)O)cc5n4CC(=O)N(C)C)ccc3n2)s1 [Compound 212, 1-[N,N-dimethylaminocarbonyl-methyl]-2-[2-(2,4-dimethylthiazol-5-yl)-quinolin-6-yl]-3-cyclohexyl-1H-indole-6-carboxylic acid] |
| – | 92.1% | Cc1nc(C)c(-c2ccc3cc(-c4c(C5CCCCC5)c5ccc(C(=O)O)cc5n4CC(=O)NCC(=O)O)ccc3n2)s1 [Compound 213, 1-[(N-carboxymethycarbamoyl)-methyl]-[2-(2,4-dimethyl-thiazol-5-yl)-quinolin-6-yl]-3-cyclohexyl-1H-indole-6-carboxylic acid] |
| 92.1% | – | Cc1nc(C)c(-c2ccc3cc(-c4c(C5CCCCC5)c5ccc(C(=O)O)cc5n4CC(=O)N4CCC(N5CCCC5)CC4)ccc3n2)s1 [Compound 214, 1-[2-oxo-2-(4-pyrrolidin-1-yl-piperidin-1-yl)-ethyl]-2-[2-(2,4-dimethylthiazol-5-yl)-quinolin-6-yl]-3-cyclohexyl-1H-indole-6-carboxylic acid] |
| 94.3% | – | Cc1nc(C)c(-c2ccc3cc(-c4c(C5CCCCC5)c5ccc(C(=O)O)cc5n4CC(=O)NCCO)ccc3n2)s1 [Compound 215, 1-[(2-hydroxyethylcarbamoyl)-methyl]-2-[2-(2,4-dimethyl-thiazol-5-yl)-quinolin-6-yl]-3-cyclohexyl-1H-indole-6-carboxylic acid] |
| 98.8% | – | Cc1nc(C)c(-c2nc3ccc(-c4cc5ccc(C(=O)O)cc5n4CC(=O)N4CCCCC4)cc3cc2C2CCCCC2)s1 [Compound 216, 1-(2-oxo-2-piperidin-1-yl-ethyl)-2-[2-(2,4-dimethylthiazol-5-yl)-3-cyclohexylquinolin-6-yl]-1H-indole-6-carboxylic acid] |
| – | 98.0% | O=C(O)c1ccc2c(C3CCCCC3)c(-c3ccc4nc(-c5ccccn5)ccc4c3)n(CC(=O)N3CCOCC3)c2c1 [Compound 217, 1-[N-morpholinocarbonylmethyl]-2-[2-(pyrid-2-yl)-quinolin-6-yl]-3-cyclohexyl-1H-indole-6-carboxylic acid] |
| – | 96.2% | O=C(O)c1ccc2c(C3CCCCC3)c(-c3ccc4nc(-c5cnccn5)ccc4c3)n(CC(=O)N3CCOCC3)c2c1 [Compound 218, 1-[N-morpholinocarbonylmethyl]-2-[2-(pyrazin-2-yl)-quinolin-6-yl]-3-cyclohexyl-1H-indole-6-carboxylic acid] |
| – | 96.0% | O=C(O)c1ccc2c(C3CCCCC3)c(-c3ccc4nc(-c5ccc[nH]5)ccc4c3)n(CC(=O)N3CCOCC3)c2c1 [Compound 219, 1-[N-morpholinocarbonylmethyl]-2-[2-(pyrrol-2-yl)-quinolin-6-yl]-3-cyclohexyl-1H-indole-6-carboxylic acid] |
| – | 96.4% | O=C(O)c1ccc2c(C3CCCCC3)c(-c3ccc4nc(-c5ccccc5)ccc4c3)n(CC(=O)N3CCOCC3)c2c1 [Compound 220, 1-[N-morpholinocarbonylmethyl]-2-[2-phenylquinolin-6-yl]-3-cyclohexyl-1H-indole-6-carboxylic acid] |
| 99.6% | – | COc1cccc(-c2ccc3cc(-c4c(C5CCCCC5)c5ccc(C(=O)O)cc5n4CC(=O)N4CCOCC4)ccc3n2)c1 [Compound 221, 3-Cyclohexyl-2-[2-(3-methoxy-phenyl)-quinolin-6-yl]-1-(2-morpholin-4-yl-2-oxo-ethyl)-1H-indole-6-carboxylic acid] |
| – | 92.3% | O=C(O)c1ccc2c(C3CCCCC3)c(-c3ccc4nc(-c5ccco5)ccc4c3)n(CC(=O)N3CCOCC3)c2c1 [Compound 222, 1-[N-morpholinocarbonylmethyl]-2-(2-furan-2-yl-quinolin-6-yl)-3-cyclohexyl-1H-indole-6-carboxylic acid] |
| – | 95.1% | Cc1ccc(-c2ccc3cc(-c4c(C5CCCCC5)c5ccc(C(=O)O)cc5n4CC(=O)N4CCOCC4)ccc3n2)o1 [Compound 223] |
| – | 98.2% | O=C(O)c1ccc2c(C3CCCCC3)c(-c3ccc4nc(-c5cccs5)ccc4c3)n(CC(=O)N3CCOCC3)c2c1 [Compound 224, 1-[N-morpholinocarbonylmethyl]-2-[2-thien-2-ylquinolin-6-yl]-3-cyclohexyl-1H-indole-6-carboxylic acid] |
